# Experimental data as given in patent publication US20080026003A1, “Methods for inhibiting pain” (The General Hospital Corporation, priority 2000, published 2008).
# Entries after “also recorded” stand apart in the source; their conditions may differ.
# Assays:
# [1] = system: CFA inflamed hindpaw of rats; assay: Mechanical (von Frey) and thermal (radiant heat) sensitivity after Cox-2 or caspase-1 inhibitor
# Description: Thermal sensitivity was assessed by applying a beam of radiant heat and recording the paw withdrawal latency (Decosterd et al., supra).
# [2] = system: CFA-induced inflammatory pain in rats; conditions: non-inflamed animals; Ji et al., 1999; cited from earlier work
# p-p38 and VR1 = p-p38 and VR1 in DRG after intrathecal NGF; type: in vivo, rat; conditions: for NGF-induced VR1 increase: 1 μg co-administered with NGF twice a day for three days
# Description: L4 and L5 DRGs and L4-L5 spinal cord segments were dissected. DRG and transverse spinal cord sections (20 μm) were cut and processed for immunohistochemistry using the previously described ABC method (Ji et al., Nat. Neurosci. 2:1114-1119, 1999), with polyclonal anti-p38 and phospho-p38 (1:300, New England BioLabs) and polyclonal anti-VR1 antibodies (1:5000, Kindly provided by Glaxso Welcome and Dr. David Julius). For colocalization studies, immunofluorescence was performed to analyze the double staining between antibodies reactive with phosphop38 (anti-rabbit, 1:300) and VR1 (anti-guinea pig, 1:3000, Neuromics) or P2X3 (anti-guinea pig, 1:3000, Neuromics) or NeuN (anti-mouse, 1:3000, Chemicon). This double immunofluorescence was performed as previously described (Ji et al., 2001, supra). Briefly, DRG and spinal sections were incubated with a mixture of two primary antibodies overnight at 4° C. and then incubated with a mixture of FITC- and CY3-congugated secondary antibodies (1:300, Jackson immunolab) for two hours at room temperature. A Tyramide Signal Amplification (TSA, NEN) kit was used to perform double staining with two polyclonal rabbit antibodies (phospho p38 and TrkA) as previously reported (Amaya et al., Mol. Cell Neurosci 15:331-342, 2000). The images of immunostained DRG sections were captured with a CCD camera. The intensity of immunostaining was measured with computer-assisted software (IP lab), and the number of immunoreactive neuronal profiles was counted in a blinded fashion. […] Instead, the results provide a way to evaluate differences in staining levels between control and treated animals. To prevent variations due to experimental conditions, the control and treated DRG sections were mounted on the same slides and processed under the same conditions. […] As previously reported (Ji et al., 1999, supra), every fifth section was picked from a series of consecutive DRG sections (20 μm), and four sections were included for each DRG. The percentage of immnunoreactive neuronal profiles=(number of positive stained neuronal profiles/number of total neuronal profiles)×100.
# After CFA-induced inflammation, NGF is produced in the inflamed paw tissue and is retrogradely transported to the cell body of DRG neurons. NGF is critical for gene expression in DRG neurons and plays a major role in inflammatory pain (Lindsay et al., Nature 337: 362-364, 1989; and Woolf et al., Neuroscience 62:327-331, 1994). […] To determine whether NGF is required for the inflammation-induced activation of p38 and upregulation of VR1, NGF antiserum (i.p., 5 μl/g body weight, 84 mg/ml) was injected to neutralize endogenous NGF. […] Intrathecal injection of NGF (2 μg in 10 μl, twice a day for three days, Boeringer) increased both p-p38 levels and VR1 levels in DRG neurons. […]
# [3] = system: CFA-induced inflammatory pain in rats; assay: Heat and mechanical sensitivity after intrathecal p38 inhibitor; type: in vivo, rat; conditions: for late phase of inflammation-induced heat hyperalgesia: 24 and 48 hours after CFA
# Description: (§1) CFA-induced inflammatory pain is characterized by hyperalgesia (i.e., an increased sensitivity to a noxious stimulus) and allodynia (i.e., generation of pain by a normally innocuous stimulus). To examine the involvement of p38 activation in the DRG in inflammatory pain, 10 μl of a specific p38 inhibitor, SB 203580 (1 μg, Calbiochem), was administered into the intrathecal space (close to L4 DRG level) via an intrathecal PP10 catheter. Although p38 inhibitors have an anti-inflammatory action when delivered systematically, localized intrathecal drug administration should not affect inflammation in the paw. To obtain a sustained and stable drug infusion, an Alzet osmotic pump (seven day pump, 0.5 μl/hour) was filled with the p38-inhibitor SB 203580 (1 μg/μl) in saline, and the associated catheter of the pump was implanted intrathecally sixteen hours before CFA injection. Saline was used as vehicle control for the osmotic pump.
# To test whether the p38 inhibitor affects basal pain sensitivity, heat and mechanical sensitivity were measured, as previously described (Ji et al., 2001, supra). Briefly, animals were habituated and basal pain sensitivity was tested before drug administration or surgery. Mechanical withdrawal threshold on the plantar surface of the hindpaw was measured with a set of von Frey hairs. […] Thermal paw withdrawal latency was measured using the Hargreaves radiant heat apparatus and averaged over three trials. […] To investigate whether the p38 inhibitor affects established inflammatory pain, SB203580 (1 μg) was intrathecally injected 48 hours after CFA injection. Pain behavior was measured 0.5, 3, and 24 hours after the inhibitor was injected.
# VR1 protein = VR1 protein in DRG after CFA inflammation (Western blot, immunohistochemistry); type: in vivo, rat; conditions: for induction of VR1 after inflammation: continuous intrathecal infusion via osmotic pump, two days
# Description: L4 and L5 DRGs and L4-L5 spinal cord segments were dissected. DRG and transverse spinal cord sections (20 μm) were cut and processed for immunohistochemistry using the previously described ABC method (Ji et al., Nat. Neurosci. 2:1114-1119, 1999), with polyclonal anti-p38 and phospho-p38 (1:300, New England BioLabs) and polyclonal anti-VR1 antibodies (1:5000, Kindly provided by Glaxso Welcome and Dr. David Julius). For colocalization studies, immunofluorescence was performed to analyze the double staining between antibodies reactive with phosphop38 (anti-rabbit, 1:300) and VR1 (anti-guinea pig, 1:3000, Neuromics) or P2X3 (anti-guinea pig, 1:3000, Neuromics) or NeuN (anti-mouse, 1:3000, Chemicon). This double immunofluorescence was performed as previously described (Ji et al., 2001, supra). Briefly, DRG and spinal sections were incubated with a mixture of two primary antibodies overnight at 4° C. and then incubated with a mixture of FITC- and CY3-congugated secondary antibodies (1:300, Jackson immunolab) for two hours at room temperature. A Tyramide Signal Amplification (TSA, NEN) kit was used to perform double staining with two polyclonal rabbit antibodies (phospho p38 and TrkA) as previously reported (Amaya et al., Mol. Cell Neurosci 15:331-342, 2000). The images of immunostained DRG sections were captured with a CCD camera. The intensity of immunostaining was measured with computer-assisted software (IP lab), and the number of immunoreactive neuronal profiles was counted in a blinded fashion. […] Instead, the results provide a way to evaluate differences in staining levels between control and treated animals. To prevent variations due to experimental conditions, the control and treated DRG sections were mounted on the same slides and processed under the same conditions. […]
# To determine whether expression of VR1 protein in DRG neurons was induced by peripheral inflammation, the following Western blot analysis was used. […] The density of specific bands was measured and normalized with internal control bands from the loading control. […]
# CFA-injected paws = assay: CFA-induced paw swelling (paw thickness); type: in vivo, rat; conditions: intrathecal infusion by osmotic pump started before CFA
# Description: as §1
# [4] = system: CFA-induced inflammatory pain in rats; assay: Heat and mechanical sensitivity after intrathecal p38 inhibitor; type: in vivo, rat; conditions: intrathecal 1 μg 24 hours after CFA treatment; tested 0.5, 3 and 24 hours
# Cox-2 mRNA [5] = assay: Cox-2 mRNA in isolated spinal cord slice in vitro; type: cell-based, rat; conditions: 200 ng/ml; in vitro spinal cord slice
# Description: Two mechanisms may contribute to central Cox-2 induction in response to peripheral inflammation: 1) sensory inflow from nerve fibers innervating the inflamed hindpaw or 2) circulating pro-inflammatory cytokines. To determine whether primary sensory neuron activity increases central Cox-2, an isolated adult rat spinal cord slice preparation with an attached dorsal root was analyzed (FIG. 5A). To prepare this spinal cord slice, the lumbar spinal cord from an adult rat under urethane anesthesia was removed and immersed in cold Kreb's solution. A 700-μm-thick transverse slice with attached L4 dorsal root (15-20 mm) was prepared and perfused with Kreb's solution saturated with 95% O2 and 5% CO2 at 36-37° C. (Baba et al., J Neurosci 19:859, 1999). The L4 dorsal root was electrically stimulated for 30 minutes using a suction electrode at 20 μA (0.05 ms, 50 Hz) for Aβ-fibers, 100 μA (0.05 ms, 50 Hz) for […] 1000 μA (0.5 ms, 50 Hz) for C-fibers. The slices were perfused with Kreb's solution for two hours before electrical stimulation, and for three hours after stimulation.
# Cox-2 mRNA [6] = assay: Cox-2 mRNA in lumbar spinal cord after intraplantar CFA (RNase protection assay); type: in vivo, rat
# Description: The extent of Cox-2 induction in the central nervous system following unilateral hindpaw inflammation evoked by complete Freund's adjuvant (CFA) was investigated. CFA (100 μl, Sigma) was injected into the left rat hindpaw of rats anaesthetized with 2% halothane. The level of Cox-2 mRNA was measured using RNase protection assays which were performed on total RNA extracts from spinal cord samples using the RPA III kit (Ambion). […] At least two assays were used for each observation, and the fold change in Cox-2 mRNA levels was determined with respect to a β-actin loading control.
# To further support the role of central IL-1β in induction of Cox-2, the effect of inhibiting IL-1β activity was determined.
# p38 and ERK = assay: MAP kinase phosphorylation in primary DRG neuron cultures; type: cell-based, rat; conditions: culture
# Description: To investigate the intracellular signaling pathway that leads to the increase in Cox-2 mRNA in the DRG neurons following treatment with IL-1β, the activation of the NFκ-B transcription factor and members of the MAP kinase family in primary DRG neurons was studied. […] Phosphorylated p38 and ERK were visualized by standard Western blot analysis and immunohistochemistry 30 minutes after administration of 10 ng/ml IL-1β to the culture medium (FIG. 12).
# After CFA-induced inflammation, NGF is produced in the inflamed paw tissue and is retrogradely transported to the cell body of DRG neurons. NGF is critical for gene expression in DRG neurons and plays a major role in inflammatory pain (Lindsay et al., Nature 337: 362-364, 1989; and Woolf et al., Neuroscience 62:327-331, 1994). […] To determine whether NGF is required for the inflammation-induced activation of p38 and upregulation of VR1, NGF antiserum (i.p., 5 μl/g body weight, 84 mg/ml) was injected to neutralize endogenous NGF. […] Intrathecal injection of NGF (2 μg in 10 μl, twice a day for three days, Boeringer) increased both p-p38 levels and VR1 levels in DRG neurons. […] To test whether NGF acts via p38 to upregulate VR1, the p38 inhibitor SB203580 (1 μg) was co-administrated with NGF (twice a day for three days).
# PGE2 = PGE2 levels in cerebrospinal fluid after CFA inflammation (enzyme-immunoassay); type: in vivo, rat; conditions: for decrease of PGE2 levels in the cerebrospinal fluid: intrathecal
# [7] = intrathecal 30 μg, 48 hours after CFA-induced inflammation
# [8] = intrathecal infusion before CFA
# [9] = intrathecal infusion before CFA, listed as SB 203580
# [10] = intrathecal 2 μg twice a day for three days
compound,measurement,setting,value
CS(=O)(=O)Nc1ccc([N+](=O)[O-])cc1OC1CCCCC1 [NS398],reduction of mechanical hyperalgesia,[1]; [7],4.2 fold
same,thermal hyperalgesia,[1]; [7],significantly reduced
same,mechanical or thermal pain sensitivity in naive rats,[1]; naive rats,did not alter
COc1cccc(-c2cc(=O)c3ccccc3o2)c1N [PD98059],basal pain sensitivity,[2],no significant change
C[S+]([O-])c1ccc(-c2nc(-c3ccncc3)c(-c3ccc(F)cc3)[nH]2)cc1 (stereo not shown) [SB203580],NGF-induced VR1 increase,p-p38 and VR1,significantly suppressed
same,NGF-induced VR1 increase,p-p38 and VR1; listed as 203580,blocked
same,established inflammatory pain,"[3]; 1 μg intrathecal after CFA, 0.5 hours post-injection",did not affect
same,heat hyperalgesia,"[3]; 1 μg intrathecal after CFA, 24 hours post-injection",completely reversed
same,heat hyperalgesia,"[3]; 1 μg intrathecal after CFA, three hours post-injection",started to decrease
same,inflammatory heat hyperalgesia,"[3]; intrathecal bolus 1 μg twice a day for two days, first 30 minutes prior to CFA",decreased
same,mechanical allodynia,[3]; [8],did not significantly affect
same,late phase of inflammation-induced heat hyperalgesia,[3]; [8],alleviated
same,late phase of inflammation-induced heat hyperalgesia,[3]; [9],reduced
same,mechanical allodynia,[3]; [9],did not affect
same,heat and mechanical sensitivity in non-inflamed rats,"[3]; non-inflamed rats, intrathecal",Neither heat nor mechanical sensitivity in non-inflamed rats was affected
same,early phase of inflammatory pain,"[3]; six hour time point, intrathecal infusion before CFA",did not change
same,induction of VR1 after inflammation,VR1 protein,inhibited; also recorded: blocked
same,induction of VR1 after inflammation,VR1 protein; listed as SB 203580,decreased
same,CFA-induced upregulation of VR1 protein (Western blot),"VR1 protein; intrathecal 1 μg twice a day for two days, at two days",blocked
same,"CFA-induced swelling, based on paw thickness",CFA-injected paws,does not change
same,"CFA-induced swelling, based on paw thickness",CFA-injected paws; listed as SB 203085,did not reduce
same,inflammatory heat hyperalgesia,[4],delayed inhibition
IL-1ra: recombinant IL-1β receptor antagonist (IL-1ra),activity-evoked Cox-2 mRNA induction,Cox-2 mRNA [5],did not affect
same,reduction of Cox-2 mRNA levels,"Cox-2 mRNA [6]; intrathecal 6 μg 30 minutes prior to CFA injection, six hours post-inflammation",75%
"NGF: nerve growth factor, a known pain mediator, injected intrathecally",VR1 levels in DRG neurons,p-p38 and VR1; [10],increases
same,p-p38 levels in DRG neurons,p-p38 and VR1; [10],increases
same,p38 activation in adult primary DRG neurons grown in culture,p38 and ERK,induced
acetyl-Tyr-Val-Ala-Asp-CHO [YVAD],reduction of the levels of central PGE2,"PGE2; intrathecal pretreatment 1 nmole, 12 and 24 hours post-inflammation",50%
same,decrease of PGE2 levels in the cerebrospinal fluid,PGE2; 12 hours post inflammation,50%
same,decrease of PGE2 levels in the cerebrospinal fluid,PGE2; 24 hours post-inflammation,70%
same,block of the induction of spinal Cox-2 mRNA,"Cox-2 mRNA [6]; 30 minute intrathecal pretreatment, 1 nmole (0.5 μg), six hours after peripheral inflammation",65%
same,normalizing mechanical sensitivity,"[1]; intrathecal 1 nmol, CFA inflammation",12 fold
same,thermal withdrawal latency of the CFA inflamed hindpaw,"[1]; intrathecal 1 nmol, compared with vehicle",did not significantly affect
same,mechanical threshold of the CFA inflamed hindpaw,"[1]; intrathecal 1 nmol, compared with vehicle, p<0.05",increased
